Results as given in the kinase profiling compilation of Christmann-Franck et al. (2016).

Columns and labels:
Test in all cases: radiometric filter-binding kinase assay, Kinase HotSpot
Settings in all cases: compound 0.5 µM; ATP 10 µM
CSNK1E (human) = CSNK1E (human) (UniProt P49674)
CDK5 CDK5R1 p35 (human) = CDK5 CDK5R1 p35 (human) (UniProt Q00535+Q15078)
NEK7 (human) = NEK7 (human) (UniProt Q8TDX7)
MARK2 (human) = MARK2 (human) (UniProt Q7KZI7)
MAP3K10 (human) = MAP3K10 (human) (UniProt Q02779)
PBK (human) = PBK (human) (UniProt Q96KB5)
TLK2 (human) = TLK2 (human) (UniProt Q86UE8)
CDC42BPB (human) = CDC42BPB (human) (UniProt Q9Y5S2)
MAPK12 (human) = MAPK12 (human) (UniProt P53778)
ULK3 (human) = ULK3 (human) (UniProt Q6PHR2)
NUAK2 (human) = NUAK2 (human) (UniProt Q9H093)
EPHA6 (human) = EPHA6 (human) (UniProt Q9UF33)
MYO3B (human) = MYO3B (human) (UniProt Q8WXR4)
STK38 (human) = STK38 (human) (UniProt Q15208)
RAF1 (human) = RAF1 (human) (UniProt P04049)
ACVR1 (human) = ACVR1 (human) (UniProt Q04771)
GRK6 (human) = GRK6 (human) (UniProt P43250)
EGFR (human) = EGFR (human) (UniProt P00533)
ABL1 (human) = ABL1 (human) (UniProt P00519)
CLK2 (human) = CLK2 (human) (UniProt P49760)
PRKACG (human) = PRKACG (human) (UniProt P22612)
ERBB2 (human) = ERBB2 (human) (UniProt P04626)
MYLK (human) = MYLK (human) (UniProt Q15746)
PRKCE (human) = PRKCE (human) (UniProt Q02156)
CHUK (human) = CHUK (human) (UniProt O15111)
FGFR1 (human) = FGFR1 (human) (UniProt P11362)
MAPK1 (human) = MAPK1 (human) (UniProt P28482)
PLK1 (human) = PLK1 (human) (UniProt P53350)
PAK1 (human) = PAK1 (human) (UniProt Q13153)
PLK2 (human) = PLK2 (human) (UniProt Q9NYY3)
WEE1 (human) = WEE1 (human) (UniProt P30291)
FES (human) = FES (human) (UniProt P07332)
STK4 (human) = STK4 (human) (UniProt Q13043)
DCLK2 (human) = DCLK2 (human) (UniProt Q8N568)
AURKA (human) = AURKA (human) (UniProt O14965)
EPHB4 (human) = EPHB4 (human) (UniProt P54760)
PRKD2 (human) = PRKD2 (human) (UniProt Q9BZL6)
PDGFRB (human) = PDGFRB (human) (UniProt P09619)
CSNK2A2 (human) = CSNK2A2 (human) (UniProt P19784)

CSNK1E (human), sequence (P49674 whole entry, looked up): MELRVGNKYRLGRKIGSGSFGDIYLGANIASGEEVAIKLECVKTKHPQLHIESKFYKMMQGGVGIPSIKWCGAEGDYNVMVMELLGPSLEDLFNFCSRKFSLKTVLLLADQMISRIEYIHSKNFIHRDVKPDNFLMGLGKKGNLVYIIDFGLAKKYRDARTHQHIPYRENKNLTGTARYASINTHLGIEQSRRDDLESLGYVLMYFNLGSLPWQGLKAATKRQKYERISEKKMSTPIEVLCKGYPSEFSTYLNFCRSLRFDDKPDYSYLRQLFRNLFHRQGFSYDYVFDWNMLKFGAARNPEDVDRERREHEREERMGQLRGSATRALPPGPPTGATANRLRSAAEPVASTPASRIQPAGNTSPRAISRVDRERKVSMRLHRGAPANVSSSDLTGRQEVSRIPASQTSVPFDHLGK
PLK1 (human), sequence (P53350 whole entry, looked up): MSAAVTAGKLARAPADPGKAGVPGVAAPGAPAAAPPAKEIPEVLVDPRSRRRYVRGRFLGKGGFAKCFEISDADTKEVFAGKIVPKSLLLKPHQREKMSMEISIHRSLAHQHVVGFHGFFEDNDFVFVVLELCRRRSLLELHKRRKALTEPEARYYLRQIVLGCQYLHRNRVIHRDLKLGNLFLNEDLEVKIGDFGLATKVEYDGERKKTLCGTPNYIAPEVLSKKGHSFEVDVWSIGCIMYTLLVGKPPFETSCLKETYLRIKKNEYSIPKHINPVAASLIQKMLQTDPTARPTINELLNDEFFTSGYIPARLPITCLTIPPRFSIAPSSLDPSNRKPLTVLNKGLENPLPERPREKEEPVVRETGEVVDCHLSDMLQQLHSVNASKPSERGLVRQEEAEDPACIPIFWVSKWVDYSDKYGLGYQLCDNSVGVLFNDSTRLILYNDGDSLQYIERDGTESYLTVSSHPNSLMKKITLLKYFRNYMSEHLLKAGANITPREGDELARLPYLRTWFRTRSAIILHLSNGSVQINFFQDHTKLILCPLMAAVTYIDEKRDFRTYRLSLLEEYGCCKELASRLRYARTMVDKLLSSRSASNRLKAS
DCLK2 (human), sequence (Q8N568 whole entry, looked up): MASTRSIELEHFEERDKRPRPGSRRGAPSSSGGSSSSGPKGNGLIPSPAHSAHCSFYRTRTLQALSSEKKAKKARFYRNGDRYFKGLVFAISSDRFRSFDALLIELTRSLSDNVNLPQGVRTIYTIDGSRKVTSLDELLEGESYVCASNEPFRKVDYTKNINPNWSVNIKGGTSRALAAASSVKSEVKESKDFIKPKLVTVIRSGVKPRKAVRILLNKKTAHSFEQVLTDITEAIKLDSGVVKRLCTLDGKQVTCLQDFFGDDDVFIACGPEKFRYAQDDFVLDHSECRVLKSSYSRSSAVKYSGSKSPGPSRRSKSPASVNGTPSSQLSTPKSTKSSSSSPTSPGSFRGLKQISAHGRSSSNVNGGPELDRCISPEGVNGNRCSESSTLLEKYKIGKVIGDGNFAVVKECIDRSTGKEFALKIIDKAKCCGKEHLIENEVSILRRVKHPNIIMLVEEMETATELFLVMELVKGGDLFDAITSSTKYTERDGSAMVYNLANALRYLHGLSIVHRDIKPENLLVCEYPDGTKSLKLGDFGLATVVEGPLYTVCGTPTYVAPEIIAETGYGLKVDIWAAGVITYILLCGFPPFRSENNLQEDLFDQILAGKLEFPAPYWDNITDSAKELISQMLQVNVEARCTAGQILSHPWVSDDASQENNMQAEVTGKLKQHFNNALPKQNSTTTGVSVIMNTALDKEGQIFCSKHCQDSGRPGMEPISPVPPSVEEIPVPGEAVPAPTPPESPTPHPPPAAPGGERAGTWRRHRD
ACVR1 (human), sequence (Q04771 whole entry, looked up): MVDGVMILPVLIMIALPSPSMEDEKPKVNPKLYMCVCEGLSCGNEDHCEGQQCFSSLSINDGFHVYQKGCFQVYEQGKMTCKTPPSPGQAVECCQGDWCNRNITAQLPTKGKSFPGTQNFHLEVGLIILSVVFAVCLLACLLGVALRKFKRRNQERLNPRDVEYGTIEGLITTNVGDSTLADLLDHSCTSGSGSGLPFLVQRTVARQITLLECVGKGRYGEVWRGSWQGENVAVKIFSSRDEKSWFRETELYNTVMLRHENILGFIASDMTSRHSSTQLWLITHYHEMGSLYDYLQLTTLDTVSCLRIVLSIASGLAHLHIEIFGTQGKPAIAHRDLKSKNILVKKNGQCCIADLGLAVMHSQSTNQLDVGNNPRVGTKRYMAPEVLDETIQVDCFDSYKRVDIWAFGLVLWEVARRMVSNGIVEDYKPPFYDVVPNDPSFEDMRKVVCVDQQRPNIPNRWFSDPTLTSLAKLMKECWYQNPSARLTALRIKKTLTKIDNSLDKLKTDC
EPHB4 (human), sequence (P54760 whole entry, looked up): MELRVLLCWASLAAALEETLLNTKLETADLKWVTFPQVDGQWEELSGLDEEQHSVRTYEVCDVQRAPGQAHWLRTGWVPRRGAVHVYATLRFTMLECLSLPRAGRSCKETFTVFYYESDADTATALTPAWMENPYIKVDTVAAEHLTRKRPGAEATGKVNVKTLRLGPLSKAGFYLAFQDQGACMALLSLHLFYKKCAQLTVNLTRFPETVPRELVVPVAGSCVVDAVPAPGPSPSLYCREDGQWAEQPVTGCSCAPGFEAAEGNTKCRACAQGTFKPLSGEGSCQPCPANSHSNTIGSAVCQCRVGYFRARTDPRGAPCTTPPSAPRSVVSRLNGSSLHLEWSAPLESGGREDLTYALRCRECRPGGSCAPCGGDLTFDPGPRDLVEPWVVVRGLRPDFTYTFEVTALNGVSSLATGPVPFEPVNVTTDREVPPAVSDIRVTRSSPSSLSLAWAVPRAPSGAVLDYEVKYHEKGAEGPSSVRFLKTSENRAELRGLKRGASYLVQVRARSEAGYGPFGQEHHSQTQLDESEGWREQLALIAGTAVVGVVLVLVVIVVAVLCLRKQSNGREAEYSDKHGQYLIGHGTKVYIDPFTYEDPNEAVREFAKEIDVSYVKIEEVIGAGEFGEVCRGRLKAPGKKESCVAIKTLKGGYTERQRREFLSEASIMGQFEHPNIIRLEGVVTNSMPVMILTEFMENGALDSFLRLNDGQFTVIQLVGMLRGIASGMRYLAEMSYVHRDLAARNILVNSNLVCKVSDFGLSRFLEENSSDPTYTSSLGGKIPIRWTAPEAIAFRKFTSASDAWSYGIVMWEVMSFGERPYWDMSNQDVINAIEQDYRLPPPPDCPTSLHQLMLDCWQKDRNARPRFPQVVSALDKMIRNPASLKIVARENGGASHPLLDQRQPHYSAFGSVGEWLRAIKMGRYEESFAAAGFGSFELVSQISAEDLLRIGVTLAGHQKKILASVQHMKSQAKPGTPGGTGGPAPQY
PAK1 (human), sequence (Q13153 whole entry, looked up): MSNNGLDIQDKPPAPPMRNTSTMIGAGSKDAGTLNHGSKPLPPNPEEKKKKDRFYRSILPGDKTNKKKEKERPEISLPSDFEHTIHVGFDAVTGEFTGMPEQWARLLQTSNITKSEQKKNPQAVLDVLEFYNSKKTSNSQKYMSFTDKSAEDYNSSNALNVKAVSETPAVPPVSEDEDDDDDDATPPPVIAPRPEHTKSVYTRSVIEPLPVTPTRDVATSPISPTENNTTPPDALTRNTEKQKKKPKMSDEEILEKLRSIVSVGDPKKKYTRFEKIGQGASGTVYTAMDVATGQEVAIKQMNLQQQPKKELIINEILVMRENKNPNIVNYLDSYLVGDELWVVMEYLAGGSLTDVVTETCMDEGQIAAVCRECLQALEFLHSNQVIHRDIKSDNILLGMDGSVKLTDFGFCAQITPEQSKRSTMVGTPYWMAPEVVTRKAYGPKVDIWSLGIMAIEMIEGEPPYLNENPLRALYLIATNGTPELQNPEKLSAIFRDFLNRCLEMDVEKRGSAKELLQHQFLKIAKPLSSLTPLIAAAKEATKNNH
MAPK1 (human), sequence (P28482 whole entry, looked up): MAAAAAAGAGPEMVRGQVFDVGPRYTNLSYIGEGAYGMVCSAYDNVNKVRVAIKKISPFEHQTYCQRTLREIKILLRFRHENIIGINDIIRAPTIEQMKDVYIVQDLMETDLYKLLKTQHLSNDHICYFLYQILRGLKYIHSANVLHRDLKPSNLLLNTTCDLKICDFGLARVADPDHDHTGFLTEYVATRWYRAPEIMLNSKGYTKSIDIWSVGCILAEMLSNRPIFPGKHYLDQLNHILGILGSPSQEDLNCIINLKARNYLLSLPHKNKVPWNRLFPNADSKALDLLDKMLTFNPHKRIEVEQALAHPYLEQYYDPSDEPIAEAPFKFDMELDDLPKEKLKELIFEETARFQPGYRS
STK38 (human), sequence (Q15208 whole entry, looked up): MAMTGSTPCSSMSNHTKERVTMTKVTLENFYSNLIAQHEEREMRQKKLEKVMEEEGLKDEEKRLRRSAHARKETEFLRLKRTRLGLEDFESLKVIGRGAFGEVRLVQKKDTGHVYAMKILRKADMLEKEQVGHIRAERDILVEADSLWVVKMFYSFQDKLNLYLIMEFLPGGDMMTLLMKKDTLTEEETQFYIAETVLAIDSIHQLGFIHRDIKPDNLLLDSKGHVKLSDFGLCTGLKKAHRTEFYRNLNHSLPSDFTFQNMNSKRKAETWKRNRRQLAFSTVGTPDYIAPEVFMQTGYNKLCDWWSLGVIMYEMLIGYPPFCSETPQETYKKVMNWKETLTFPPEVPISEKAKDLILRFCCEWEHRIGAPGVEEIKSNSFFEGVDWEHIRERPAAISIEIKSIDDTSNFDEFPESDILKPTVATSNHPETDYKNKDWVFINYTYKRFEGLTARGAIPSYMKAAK
MAPK12 (human), sequence (P53778 whole entry, looked up): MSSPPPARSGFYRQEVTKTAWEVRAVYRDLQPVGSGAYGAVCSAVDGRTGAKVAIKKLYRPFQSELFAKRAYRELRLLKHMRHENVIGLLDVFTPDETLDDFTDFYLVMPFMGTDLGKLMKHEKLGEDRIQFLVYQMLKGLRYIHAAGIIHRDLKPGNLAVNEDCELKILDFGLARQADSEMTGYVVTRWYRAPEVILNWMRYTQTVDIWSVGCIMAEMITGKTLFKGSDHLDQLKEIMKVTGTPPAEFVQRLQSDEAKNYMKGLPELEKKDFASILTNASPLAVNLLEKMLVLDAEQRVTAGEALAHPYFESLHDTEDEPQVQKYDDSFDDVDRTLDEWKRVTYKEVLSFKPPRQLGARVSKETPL

SMILES: CCCNC(=O)Nc1ccc(Oc2ncnc3cc(OC)c(OC)cc23)cc1Cl
- residual activity (CSNK1E (human)): 78.5%
- residual activity (CDK5 CDK5R1 p35 (human)): 98%
- residual activity (NEK7 (human)): 103%
- residual activity (MARK2 (human)): 96.2%
- residual activity (MAP3K10 (human)): 103%
- residual activity (PBK (human)): 66.2%
- residual activity (TLK2 (human)): 99.5%
- residual activity (CDC42BPB (human)): 87.4%
- residual activity (MAPK12 (human)): 61.9%
- residual activity (ULK3 (human)): 80.7%
- residual activity (NUAK2 (human)): 123%
- residual activity (EPHA6 (human)): 77.7%
- residual activity (MYO3B (human)): 76.2%
- residual activity (STK38 (human)): 87.9%
- residual activity (RAF1 (human)): 85.4%
- residual activity (ACVR1 (human)): 101%
- residual activity (GRK6 (human)): 95%
- residual activity (EGFR (human)): 88.1%
- residual activity (ABL1 (human)): 89%
- residual activity (CLK2 (human)): 89.5%
- residual activity (PRKACG (human)): 106%
- residual activity (ERBB2 (human)): 116%
- residual activity (MYLK (human)): 97.4%
- residual activity (PRKCE (human)): 96.8%
- residual activity (CHUK (human)): 84.9%
- residual activity (FGFR1 (human)): 75.4%
- residual activity (MAPK1 (human)): 101%
- residual activity (PLK1 (human)): 101%
- residual activity (PAK1 (human)): 93.8%
- residual activity (PLK2 (human)): 104%
- residual activity (WEE1 (human)): 92.9%
- residual activity (FES (human)): 96%
- residual activity (STK4 (human)): 92.8%
- residual activity (DCLK2 (human)): 96.4%
- residual activity (AURKA (human)): 89.2%
- residual activity (EPHB4 (human)): 89.4%
- residual activity (PRKD2 (human)): 94.3%

SMILES: NC(=O)c1ccc(N(C(N)=O)c2c(F)cccc2F)nc1-c1ccc(F)cc1F
- residual activity (CSNK1E (human)): 98.2%
- residual activity (CDK5 CDK5R1 p35 (human)): 99.9%
- residual activity (NEK7 (human)): 90.1%
- residual activity (MARK2 (human)): 131%
- residual activity (PDGFRB (human)): 62.8%
- residual activity (MAP3K10 (human)): 104%
- residual activity (PBK (human)): 110%
- residual activity (TLK2 (human)): 95.7%
- residual activity (CDC42BPB (human)): 96.5%
- residual activity (MAPK12 (human)): 92.1%
- residual activity (ULK3 (human)): 101%
- residual activity (NUAK2 (human)): 98.7%
- residual activity (EPHA6 (human)): 95%
- residual activity (MYO3B (human)): 99.2%
- residual activity (STK38 (human)): 101%
- residual activity (RAF1 (human)): 97.5%
- residual activity (ACVR1 (human)): 105%
- residual activity (GRK6 (human)): 97.1%
- residual activity (EGFR (human)): 92.7%
- residual activity (ABL1 (human)): 99.7%
- residual activity (CLK2 (human)): 86.9%
- residual activity (PRKACG (human)): 109%
- residual activity (ERBB2 (human)): 106%
- residual activity (MYLK (human)): 101%
- residual activity (PRKCE (human)): 101%
- residual activity (CHUK (human)): 100%
- residual activity (FGFR1 (human)): 99%
- residual activity (MAPK1 (human)): 85.7%
- residual activity (PLK1 (human)): 95.1%
- residual activity (PAK1 (human)): 110%
- residual activity (PLK2 (human)): 102%
- residual activity (WEE1 (human)): 101%
- residual activity (FES (human)): 99%
- residual activity (STK4 (human)): 101%
- residual activity (DCLK2 (human)): 97.5%
- residual activity (AURKA (human)): 86.4%
- residual activity (EPHB4 (human)): 83.9%
- residual activity (CSNK2A2 (human)): 109%
- residual activity (PRKD2 (human)): 81.8%

SMILES: O=c1cc(N2CCNCC2)oc2c(-c3ccccc3)cccc12
- residual activity (CSNK1E (human)): 101%
- residual activity (CDK5 CDK5R1 p35 (human)): 102%
- residual activity (NEK7 (human)): 95.7%
- residual activity (MARK2 (human)): 105%
- residual activity (PDGFRB (human)): 101%
- residual activity (MAP3K10 (human)): 87.9%
- residual activity (PBK (human)): 124%
- residual activity (TLK2 (human)): 94.8%
- residual activity (CDC42BPB (human)): 97.5%
- residual activity (MAPK12 (human)): 92%
- residual activity (ULK3 (human)): 101%
- residual activity (NUAK2 (human)): 89.2%
- residual activity (EPHA6 (human)): 88.2%
- residual activity (MYO3B (human)): 97.5%
- residual activity (STK38 (human)): 94.3%
- residual activity (RAF1 (human)): 94.2%
- residual activity (ACVR1 (human)): 90.3%
- residual activity (GRK6 (human)): 89.6%
- residual activity (EGFR (human)): 110%
- residual activity (ABL1 (human)): 110%
- residual activity (CLK2 (human)): 100%
- residual activity (PRKACG (human)): 83.2%
- residual activity (ERBB2 (human)): 95.5%
- residual activity (MYLK (human)): 105%
- residual activity (PRKCE (human)): 104%
- residual activity (CHUK (human)): 103%
- residual activity (FGFR1 (human)): 110%
- residual activity (MAPK1 (human)): 65.4%
- residual activity (PLK1 (human)): 96.6%
- residual activity (PAK1 (human)): 99%
- residual activity (PLK2 (human)): 98.9%
- residual activity (WEE1 (human)): 83.4%
- residual activity (FES (human)): 95.4%
- residual activity (STK4 (human)): 88.7%
- residual activity (DCLK2 (human)): 116%
- residual activity (AURKA (human)): 105%
- residual activity (EPHB4 (human)): 101%
- residual activity (PRKD2 (human)): 86.7%
